Measured values: patent US20230391792A1, “METHODS AND COMPOSITIONS FOR TARGETED PROTEIN DEGRADATION” (Ranok Therapeutics (Hangzhou) Co. Ltd., priority 2020, published 2023)
pIC50: −log10 of the molar value.

Columns and labels:
[1] = molecular target: T1, HSP90α protein (N-terminal) (Homo sapiens, UniProt P07900); assay: HSP90α-binding fluorescent polarization (FP) assay, competition with FITC-geldanamycin; settings: probe FITC-geldanamycin 5 nM, 25° C. 120 min
T1 construct: purchased BPS Bioscience #50298
Procedure: (§1) Binding of test compounds to HSP90α protein was measured by fluorescent polarization (FP) using the HSP90α (N-terminal) Assay Kit (BPS Bioscience, #50298), following the manufacturer's instructions, except as noted. Fluorescently labeled HSP90-binding compounds, either the provided FITC-geldanamycin (5 nM final concentration) or RNK04010, a triazolone-based HSP90-binding small molecule labeled with BODIPY through a piperizine-phenyl linker (5 nM final concentration) were employed. A 2.5-fold serial dilution of each test compound ranging from 20 μM to 5.2 nM was assayed for binding to HSP90α. After the final step of adding HSP90α protein to each assay well, plates were mixed by brief shaking, incubated at 25° C. for 120 min for FITC-geldanamycin or 300 min for RNK04010, and fluorescence was measured using a PerkinElmer EnVision Plate Reader.
(§2) HSP90α-binding fluorescent polarization (FP) assays measuring competition with the fluorescently labeled HSP90 binders, FITC-geldanamycin or RNK04010 (BODIPY-labeled), were applied to assess the binding capabilities of CHAMP molecules to HSP90.

[2] = molecular target: T1, HSP90α protein (N-terminal); assay: HSP90α-binding fluorescent polarization (FP) assay, competition with BODIPY-labeled RNK04010; settings: probe RNK04010 (BODIPY-labeled) 5 nM, 25° C. 300 min
Procedure: as §1, §2

Row | pIC50 [1] | pIC50 [2] | SMILES
1 | 6.00 to 7.00 | 6.00 to 7.00 | Cc1sc2c(c1C)C(c1ccc(Cl)cc1)=NC(CC(=O)N1CCC(CN3CCN(Cc4ccc(-n5c(O)nnc5-c5cc(C(C)C)c(O)cc5O)cc4)CC3)CC1)c1nnc(C)n1-2 (centres unmarked) [Compound 1]
2 | 6.00 to 7.00 |  | CCc1cc(-c2nnc(O)n2-c2ccc(CN3CCC(C(=O)N4CCC(Nc5ncc(NC(=O)c6cc(C(=O)c7c(Cl)ccc(Cl)c7F)c[nH]6)cn5)CC4)CC3)cc2)c(O)cc1O [Compound 116]
3 | < 6.00 |  | CCOc1cc(N2CCC(C(=O)NCCOCCOCCOc3ccc(Nc4cc(-n5nc(C(F)(F)F)c6c5CC(C)(C)CC6=O)ccc4C(N)=O)cc3)CC2)ccc1Nc1ncc2c(n1)N(C)c1ccccc1C(=O)N2C [Compound 161]
4 | < 6.00 |  | CCn1c(=O)/c(=C2\Sc3ccccc3N2C)s/c1=C\c1cccc[n+]1CCCCCCNC(=O)C[C@@H]1N=C(c2ccc(Cl)cc2)c2c(sc(C)c2C)-n2c(C)nnc21 [Compound 163]
5 | < 6.00 | < 6.00 | CC[C@@H](C)Nc1cc(C(=O)NC2CC3CCC(C2)N3c2ccc(C(=O)c3ccc(CN4CCN(CC5CCN(C(=O)C[C@@H]6N=C(c7ccc(Cl)cc7)c7c(sc(C)c7C)-n7c(C)nnc76)CC5)CC4)cc3)cn2)c(C)cc1C(N)=O (some centres unmarked) [Compound 165]
6 | < 6.00 |  | CC[C@@H](C)Nc1cc(C(=O)NC2CC3CCC(C2)N3c2ccc(C(=O)Nc3ccc(CN4CCN(CC5CCN(C(=O)C[C@@H]6N=C(c7ccc(Cl)cc7)c7c(sc(C)c7C)-n7c(C)nnc76)CC5)CC4)cc3)cn2)ccc1C(N)=O (some centres unmarked) [Compound 166]
